{"source": "patent US10638750B2", "about": "“Compositions containing a hollow glucan particle or a cell wall particle encapsulating a terpene component, methods of making and using them” (Eden Research PLC, priority 2004, dated 2020)", "key": {"S. aureus": {"system": "S. aureus", "assay": "MIC of terpene emulsions and fresh or freeze-dried Baker's YP and SAF Mannan encapsulated terpenes", "format": "cell-based", "settings": "for MIC: Staphylococcus aureus", "protocol": "The results of a protocol performed to compare the MIC of fresh versus freeze dried hollow glucan particle encapsulated terpene formulations are shown below in Table 13. A simple terpene emulsion was also tested and the results are shown for comparison."}, "H. pylori": {"system": "H. pylori", "settings": "in vitro; cited from earlier work"}, "Saccharomyces cerevisiae": {"system": "Saccharomyces cerevisiae", "assay": "Saccharomyces cerevisiae MIC assays comparing free terpene emulsions with yeast-encapsulated terpenes", "format": "cell-based", "settings": "free terpene emulsion; for Cidal MIC Free terpene emulsions: re-incubation in fresh medium", "protocol": "One column was designated as a cell-only control and no terpene was added to these wells. Serial 2-fold dilutions were performed by transferring 100 μL from one row to the next a total of 7 times. […] Microtitre plates were incubated statically overnight at 30° C. […] Growth inhibition was visually confirmed by microscopy. For the free terpene emulsions, once the MIC had been determined for each formulation, the microtitre plates were centrifuged and the spent medium was removed from the growth-inhibited wells. The cells were resuspended in fresh medium (100 μL) and the plates were re-incubated overnight at 30° C. Assessment of growth inhibition was performed as before."}, "[1]": {"assay": "Terpene stability by formation of a yellow colored oxidation product of citral", "format": "physicochemical"}, "[2]": {"assay": "Citral solution and stable suspension limits", "format": "physicochemical"}, "E. coli": {"system": "E. coli", "settings": "cited from earlier work"}, "[3]": {"settings": "encapsulated in Baker's YP, freeze dried, read-out: MIC μg/ml terpene, Bakers Freeze Dried"}, "[4]": {"settings": "encapsulated in Baker's YP, fresh, read-out: MIC μg/ml terpene, Bakers Fresh"}, "[5]": {"settings": "encapsulated in SAF Mannan, freeze dried, read-out: MIC μg/ml terpene, SAF Mannan Freeze Dried"}, "[6]": {"settings": "encapsulated in SAF Mannan, fresh, read-out: MIC μg/ml terpene, SAF Mannan Fresh"}, "[7]": {"settings": "terpene emulsion, not encapsulated, read-out: MIC μg/ml terpene, Emulsion"}}, "note": "Read-outs that look alike come from different tables or passages of the source."}
{"compound": "CC(C)=CCC/C(C)=C/CO", "note": "[Geraniol, geraniol]", "values": [{"measurement": "MIC", "setting": "S. aureus; [3]", "result": 0.06, "unit": "µg/mL"}, {"measurement": "MIC", "setting": "S. aureus; [4]", "result": 0.03, "unit": "µg/mL"}, {"measurement": "MIC", "setting": "S. aureus; [5]", "result": "> 0.03", "unit": "µg/mL"}, {"measurement": "MIC", "setting": "S. aureus; [6]", "result": 0.02, "unit": "µg/mL"}, {"measurement": "MIC", "setting": "S. aureus; [7]", "result": 0.47, "unit": "µg/mL"}, {"measurement": "concentration that inhibited the growth of H. pylori", "setting": "H. pylori", "result": 2, "unit": "mg/L"}]}
{"compound": "L-carvone", "values": [{"measurement": "MIC μg/ml terpene, Bakers Freeze Dried", "setting": "S. aureus; encapsulated in Baker's YP, freeze dried", "result": ">0.04", "unit": "µg/mL"}, {"measurement": "MIC μg/ml terpene, Bakers Fresh", "setting": "S. aureus; encapsulated in Baker's YP, fresh", "result": 0.1, "unit": "µg/mL"}, {"measurement": "MIC μg/ml terpene, SAF Mannan Freeze Dried", "setting": "S. aureus; encapsulated in SAF Mannan, freeze dried", "result": ">0.02", "unit": "µg/mL"}, {"measurement": "MIC μg/ml terpene, SAF Mannan Fresh", "setting": "S. aureus; encapsulated in SAF Mannan, fresh", "result": 0.01, "unit": "µg/mL"}, {"measurement": "MIC μg/ml terpene, Emulsion", "setting": "S. aureus; terpene emulsion, not encapsulated", "result": 3.75, "unit": "µg/mL"}]}
{"compound": "Cc1ccc(C(C)C)c(O)c1", "note": "[T (3)]", "values": [{"measurement": "MIC Free terpene emulsions", "setting": "Saccharomyces cerevisiae", "result": 125, "unit": "ppm"}, {"measurement": "Cidal MIC Free terpene emulsions", "setting": "Saccharomyces cerevisiae", "result": 250, "unit": "ppm"}]}
{"compound": "C=CCc1ccc(O)c(OC)c1", "note": "[Eugenol, eugenol]", "values": [{"measurement": "MIC", "setting": "S. aureus; [3]", "result": 0.05, "unit": "µg/mL"}, {"measurement": "MIC", "setting": "S. aureus; [4]", "result": 0.03, "unit": "µg/mL"}, {"measurement": "MIC", "setting": "S. aureus; [5]", "result": 0.05, "unit": "µg/mL"}, {"measurement": "MIC", "setting": "S. aureus; [6]", "result": 0.01, "unit": "µg/mL"}, {"measurement": "MIC", "setting": "S. aureus; [7]", "result": 0.12, "unit": "µg/mL"}]}
{"compound": "CC(C)=CCCC(C)=CC=O", "note": "(mixture of isomers) [C (4)]", "values": [{"measurement": "MIC Free terpene emulsions", "setting": "Saccharomyces cerevisiae", "result": 125, "unit": "ppm"}, {"measurement": "Cidal MIC Free terpene emulsions", "setting": "Saccharomyces cerevisiae", "result": 250, "unit": "ppm"}]}
{"compound": "CC(C)=CCC/C(C)=C/CO", "note": "[G (1)]", "values": [{"measurement": "MIC Free terpene emulsions", "setting": "Saccharomyces cerevisiae", "result": 250, "unit": "ppm"}, {"measurement": "Cidal MIC Free terpene emulsions", "setting": "Saccharomyces cerevisiae", "result": 250, "unit": "ppm"}]}
{"compound": "C=CCc1ccc(O)c(OC)c1", "note": "[E (2)]", "values": [{"measurement": "MIC Free terpene emulsions", "setting": "Saccharomyces cerevisiae", "result": 125, "unit": "ppm"}, {"measurement": "Cidal MIC Free terpene emulsions", "setting": "Saccharomyces cerevisiae", "result": 250, "unit": "ppm"}]}
{"compound": "C=C(C)[C@@H]1CC=C(C)C(=O)C1", "note": "[L (5)]", "values": [{"measurement": "MIC Free terpene emulsions", "setting": "Saccharomyces cerevisiae", "result": 250, "unit": "ppm"}, {"measurement": "Cidal MIC Free terpene emulsions", "setting": "Saccharomyces cerevisiae", "result": 500, "unit": "ppm"}]}
{"compound": "CC(C)=CCCC(C)=CC=O", "note": "[Citral, 3,7-dimethyl-2,6-octadien-1-al]", "values": [{"measurement": "MIC", "setting": "S. aureus; [3]", "result": 0.05, "unit": "µg/mL"}, {"measurement": "MIC", "setting": "S. aureus; [4]", "result": 0.01, "unit": "µg/mL"}, {"measurement": "MIC", "setting": "S. aureus; [5]", "result": "> 0.03", "unit": "µg/mL"}, {"measurement": "MIC", "setting": "S. aureus; [6]", "result": 0.01, "unit": "µg/mL"}, {"measurement": "MIC", "setting": "S. aureus; [7]", "result": 0.94, "unit": "µg/mL"}, {"measurement": "yellow color (citral oxidation product) over time", "setting": "[1]; aqueous emulsion", "result": "turned a progressively increasing yellow color over time"}, {"measurement": "yellow color (citral oxidation product) over time", "setting": "[1]; encapsulated in Bakers YP", "result": "turned a progressively increasing yellow color over time"}, {"measurement": "citral stability (yellow color over time)", "setting": "[1]; encapsulated in SAF Mannan", "result": "increased citral stability"}, {"measurement": "citral stability (absence of yellow colour)", "setting": "[1]; loaded in SAF Mannan, after 24 hours at 37° C.", "result": "remains stable"}, {"measurement": "concentration up to which a solution can be made", "setting": "[2]", "result": "about 500 ppm"}, {"measurement": "concentration up to which a stable suspension can be formed", "setting": "[2]", "result": "about 2500 ppm"}, {"measurement": "concentration in growth media that reduced the concentration of E. coli", "setting": "E. coli", "result": "more than 0.01%"}, {"measurement": "concentration with bactericidal effect", "setting": "E. coli", "result": 0.08, "unit": "%"}]}
